Assay results as given in patent US6201116A, “Halide indicators” (The Regents of the University of California, priority 1999, dated 2001).

Experiments:
[1] = In vitro fluorescence quenching by I^- (Stern-Volmer); format: physicochemical
Experimental: (§1) Computations. In vitro fluorescence quenching studies were carried out at peak excitation and emission wavelengths. Microliter aliquots of the sodium salt of the quenching anion (1 M) were added to indicator solution in 5 mM sodium phosphate (pH 7.2, unless indicated otherwise). Fluorescence intensities in the absence (Fo) and presence (F) of quencher anion ([Q]) were measured to give the Stem-Volmer constant (Kq) as defined by: Fo /F=1+Kq [Q].

[2] = In vitro fluorescence quenching by Cl^- (Stern-Volmer); format: physicochemical; settings: in water (or saline)
Experimental: as §1

[3] = In vitro fluorescence quenching by other ions (Stern-Volmer); format: physicochemical
Experimental: as §1

[4] = test system: cells; assay: Cell loading and intracellular distribution (fluorescence/confocal microscopy); format: cell-based
Experimental: (§2) Fluorescence microscopy. Fluorescence microscopy measurements were performed as described previously (Chao et al., 1989). Briefly, coverglasses were mounted in a 0.5 ml perfusion chamber in which the cell-free glass surface made contact with an oil immersion objective (Nikon ×40 magnification, numerical aperture[NA] 1.3). Cell fluorescence was excited at 365±10 nm (SPQ) or 420 nm±10 nm (LZQ and LMQ). Emitted fluorescence was detected by a photomultiplier in a Nikon inverted epifluorescence microscope using a 410 nm dichroic mirror and 420 nm barrier filter (SPQ) or a 455 nm dichroic mirror and 500 nm barrier filter (LZQ). For cells colabeled with SPQ and LZQ, SPQ fluorescence was excited at 365±10 nm and detected using a 410 nm dichroic mirror and 455±30 nm interference filter. Confocal fluorescence micrographs were obtained using a Nipkow wheel confocal microscope and cooled CCD camera detector using a ×60 oil immersion objective (Nikon, NA 1.4). LZQ-labeled cells were viewed using a fluorescein filter set (excitation 480±15 nm, emission 520±20 nm).
Transport measurements. Cells were labeled with LZQ or SPQ by hypotonic shock (loading buffer/water 1:1 containing 2 mM LZQ or 7.5 mM SPQ) for 5 min at room temperature or by overnight incubation with indicators in the cell culture medium. Extracellular indicator was removed by washing just prior to measurements. For fluorescence microscopy, glass coverslips were then mounted in a perfusion chamber (flow ~2 ml/min) in which solutions were exchanged using a 4-way valve. For microplate reader measurements, cells in 96-well plates were bathed in […] of the `1st buffer` (see Table 3) and […] of the Cl^- -containing, I^- -free solution was injected into the well to drive Cl^- /I^- exchange (protocol 1). For stimulation of CFTR using protocol 2, […] of a 1:8 mixture of the 1st buffer and the 2nd buffer containing […] forskolin, 2 mM CPT-cAMP and […] IBMX was added.
LZQ and LMQ were loaded into cells efficiently by hypotonic shock or passive incubation. […] As was found for SPQ, LZQ and LMQ were non-toxic to cells in assays of cell growth (2 mM in culture medium for 72 h).

[5] = test system: cells; assay: Response of intracellular fluorescence to osmotically-induced changes in cell volume; format: cell-based
Experimental: as §2
The similar LZQ lifetime in cells and water predicts that LZQ fluorescence should be relatively insensitive to cell volume in the absence of I^-. […] When cells were exposed to hypoosmotic medium (225 mOsm), SPQ fluorescence increased by 15±2%, whereas LZQ fluorescence increased by only 4±1%.

[6] = Time-resolved anisotropy in water; format: physicochemical; settings: single-component, n=3
Experimental: (§3) Time resolved fluorescence measurements. Fluorescence lifetime and anisotropy decay measurements were carried out in the frequency domain by cuvette fluorimetry using a Fourier transform fluorimeter (48000 MHF, SLM Instruments, Urbana, Ill.) or by fluorescence microscopy using epifluorescence microscope optics in place of the cuvette compartment (Verkman et al., 1991). For microscopy measurements, impulse-modulated vertically polarized light (442 nm, He--Cd laser 35 mwatts) was reflected onto the sample by a 510 nm dichroic mirror and objective lens; emitted fluorescence was filtered by a 515 nm barrier filter and passed through a rotatable analyzing calcite polarizer. In some experiments, a biconcave lens was introduced just in front of the dichroic mirror to diverge beam diameter in the focal plane to […].
Analysis of lifetime and time-resolved anisotropy was performed by a comparative approach. Generally six pairs of measurements (each acquisition 8 s) were obtained, comparing sample and reference (fluorescein in 0.1 N NaOH, lifetime 4.0 ns) for measurement of lifetime, and parallel and perpendicular orientations of the emission polarizer for measurement of anisotropy decay. […] Median phase and modulation values for paired data were analyzed by nonlinear least-squares for determination of lifetimes and rotational correlation times.

[7] = test system: cells; assay: Time-resolved anisotropy in cells; format: cell-based
Experimental: as §3
Analysis of lifetime and time-resolved anisotropy was performed by a comparative approach. Generally six pairs of measurements (each acquisition 8 s) were obtained, comparing sample and reference (fluorescein in 0.1 N NaOH, lifetime 4.0 ns) for measurement of lifetime, and parallel and perpendicular orientations of the emission polarizer for measurement of anisotropy decay. The phase-modulation data consisted of phase angles and modulation ratios at 40 discrete, equally spaced modulation frequencies (5-200 MHz). The analyzing polarizer was positioned at the magic angle for lifetime measurements. Additional details of the data acquisition and analysis routines were described previously (Verkman et al., 1991). Median phase and modulation values for paired data were analyzed by nonlinear least-squares for determination of lifetimes and rotational correlation times.
Time-resolved anisotropy was measured to quantify intracellular LZQ binding. In water, LZQ rotated freely with a single-component rotational correlation time of 121±3 ps (n=3). For LZQ in cells, a plot of differential phase and modulation amplitude ratio indicated a two-component anisotropy decay model with a major component (fractional amplitude 0.90-0.94) of 144±10 ps, similar to that in water.

[8] = Stopped-flow response to addition and removal of I^-; format: physicochemical
[9] = test system: CFTR; assay: Colabeling: effect of LZQ on SPQ fluorescence / CFTR-mediated Cl^- transport; format: cell-based; settings: Cl^-/NO3^- exchange; SPQ alone vs. colabeled with LZQ
Experimental: as §2, with “LZQ-labeled cells were viewed using a fluorescein filter set (excitation 480±15 nm, emission 520±20 nm).” left out
Transport measurements. […] For fluorescence microscopy, glass coverslips were then mounted in a perfusion chamber (flow ~2 ml/min) in which solutions were exchanged using a 4-way valve. For microplate reader measurements, cells in 96-well plates were bathed in […] of the `1st buffer` (see Table 3) and […] of the Cl^- -containing, I^- -free solution was injected into the well to drive Cl^- /I^- exchange (protocol 1). […]

[O-]c1nc2c(N[C@@H]3O[C@H](CO)[C@@H](O)[C@H]3O)ncnc2[n+]2ccccc12 [I, 4-(β-D-ribofuranosylamino)-pyrido [2,1-h] pteridin-11-ium-5-olate]
Ksv (I^-), Stern Volmer quenching constant ([1]; Table 4): 60 M⁻¹
Stern-Volmer constant, quenching by I^- ([1]; in water (or saline)): 60 M⁻¹
effect of pH on I^- sensitivity ([1]; pH 4.5-8): not affected
Stern-Volmer constant, Cl^- [2]: < 1 M⁻¹
Stern-Volmer constant, K^+ ([3]; K^+): < 1 M⁻¹
Stern-Volmer constant, NO3^- ([3]; NO3^-): < 1 M⁻¹
Stern-Volmer constant, Na^+ ([3]; Na^+): < 1 M⁻¹
Stern-Volmer constant, acetate ([3]; acetate): < 1 M⁻¹
Stern-Volmer constant, phosphate ([3]; phosphate): < 1 M⁻¹
Cellular properties: staining/distribution ([4]; Table 4): staining uniform
labeling of cytoplasm and nucleoplasm ([4]; all cell types tested: T84, Calu-3, JME, LLC-PK1, MDCK, 3T3 fibroblasts, CHO, HeLa): uniform labeling of the cytoplasm and nucleoplasm
fluorescence intensity in cells vs. SPQ ([4]; confocal, substantially higher SPQ concentration used): remarkably more intense
loading into cells ([4]; hypotonic shock or passive incubation): efficiently
fluorescence increase upon exposure to hypoosmotic medium ([5]; 225 mOsm): 4±1%
fluorescence change upon exposure to hyperosmotic medium ([5]; 600 mOsm, absence of I^-): 5±1%
rotational correlation time [6]: 121±3 ps
binding to intracellular components [7]: negligible binding
fractional amplitude of major component ([7]; in cells): 0.90-0.94
rotational correlation time, major component ([7]; in cells, two-component model): 144±10 ps
response time to rapid addition and removal of I^- [8]: < 1 ms
effect on time course of SPQ fluorescence / CFTR-mediated Cl^- transport [9]: did not affect the time course of SPQ fluorescence
